Laboratory results reported in patent US12065512B2, “Cyclic peptide and a medicament, external preparation and cosmetic comprising said cyclic peptide” (Igisu Co., Ltd., priority 2015, dated 2024).
Entries after “also recorded” stand apart in the source; their conditions may differ. Positions of bridges follow the written chain, without caps; N, C: chain ends. No end group written: not given here.

Columns and labels:
Assay type in all cases: in vivo, human
[1] = test system: skin, affected site; test: Cyclic peptides with amino acid replacement: effects on skin (formulations A to E = 3, 15, 30, 100, 500 μg/ml in purified water)
Procedure: Next, cyclic peptides with some replaced amino acid were subjected to following examination in order to confirm their effect. The methods for preparing the above cyclic peptide and confirming amino acid sequence of the prepared peptide were same as the method for preparing the cyclic peptide as described above and Mass spectroscopy method.
9.2 Confirming Effects on Skin
The obtained cyclic peptide was prepared in purified water at 3, 15, 30, 100 or 500 μg/ml and applied to affected site. Each of formulations A to E in the table indicates the concentration of the cyclic peptide at 3, 15, 30, 100 or 500 μg/ml, respectively. The absence of the effect upon the application of purified water without the peptide confirmed the effect was not a placebo effect.

[2] = test system: symptoms associated to various alopecia; test: Therapeutic effect on alopecia: gel formulation applied to decalvant site; settings: 1 μmol, 1 application/day, continued; male alopecia, right side
Procedure: 5. Confirming Therapeutic Effect on Alopecia Either B ring gel formulation or BNP gel formulation was applied, and their effects on symptoms associated to various alopecia were observed (Table below). The changes in symptoms were determined based on physical sensory evaluation by the subject and our objective observation as physicians.

[3] = test system: skin condition of the subjects; test: Skin condition upon using bath agent comprising B ring; settings: bath in 37 to 41° C. hot water with 0.01 μM, once a day for 14 days
Procedure: 4.4 Observation on Skin Condition Upon Using Bath Agent Comprising B Ring
Subjects were given bath in 37 to 41° C. hot water comprising B ring dissolved at 0.01 μM (100 ml of 20 μM B ring solution dissolved in 200 L hot water) once a day for 14 days, and skin condition of the subjects was compared to the case of hot water alone (Table 14). The changes in skin conditions were determined based on physical sensory evaluation by the subject and our objective observation as physicians.

[4] = test system: normal subjects who had symptoms of roughened lips; test: Mucosal condition of roughened lips upon application of B ring gel formulation; settings: 1 application
Procedure: The B ring gel formulation was applied to normal subjects who had symptoms of roughened lips, and changes in mucosal condition were observed (Table below). The changes in mucosal conditions were determined based on physical sensory evaluation by the subject and our objective observation as physicians.

[5] = test system: skin conditions of subjects; test: Skin-improving (cosmetic) effect of gel formulation applied to face
Procedure: 4.1.1 Confirming Skin-Improving Effect (Comparing B Ring Gel Formulation to BNP Gel Formulation)
The B ring gel formulation or BNP gel formulation was applied to subjects. The B ring gel formulation was applied on the right cheek or eye of each subject, the BNP gel formulation on the left cheek or eye, and changes in skin conditions were observed and compared (Table below). The changes in skin conditions were determined based on physical sensory evaluation by the subject and our objective observation as physicians.
Table below summarizes examples in which B ring gel formulation was applied without applying two-sided. The changes in skin conditions were determined by similar method as described above.
4.1.2 Confirming Skin-Improving Effect (Comparing B Ring Gel Formulation to Gel Base)
In order to examine the presence or absence of the contribution by the gel base to the effects of B ring gel formulation and BNP gel formulation, three subjects were administered B ring gel formulation on their right face and the gel base on the left, and changes in skin conditions on the subject's faces were observed (Table below).

[6] = test system: subjects suffering various dermatitis; test: B ring gel formulation versus gel base by two-sided application in dermatitis; settings: right side B ring, left side gel base; atopic dermatitis or chronic eczema
Source text: 3.2 Comparing B Ring Gel Formulation to Gel Base by Two-Sided Application For subjects suffering various dermatitis, either B ring gel formulation or the gel base was applied to the affected site, and changes in symptoms before and after the application were observed (Table below).

[7] = test system: normal subjects who had symptoms of scalp/hair; test: Scalp/hair condition upon application of B ring gel formulation
Procedure: 4.3 Observation on scalp/hair condition upon application of B ring gel formulation. The B ring gel formulation was applied to normal subjects who had symptoms of scalp/hair, and changes in conditions of scalp and hair were observed (Table below). The changes in scalp/hair were determined based on physical sensory evaluation by the subject and our objective observation as physicians.

[8] = chronic eczema, formulation C (30 μg/ml in purified water), once a day
[9] = atopic dermatitis, formulation C (30 μg/ml in purified water), once a day
[10] = eczema, formulation C (30 μg/ml in purified water), once a day
[11] = roughened skin, formulation C (30 μg/ml in purified water), once a day
[12] = formulation C = 30 μg/ml cyclic peptide in purified water, applied to affected site, one line per subject (ID Q..), diagnosis and treatment as in the table line

Substance: SEQ ID NO 72 (CFSRRMDRISSTSGLAC; disulfide 1-17)
- Diagnostic impression on skin after application [1, 8]: Immediately after application, erythema,

Substance: SEQ ID NO 49 (CFSRKMDRISSSSGLAC; disulfide 1-17)
- Diagnostic impression on skin after application [1, 8]: Immediately after application, erythema

Substance: Cys-Phe-Gly-Arg-Lys-Met-Asp-Arg-Ile-Ser-Ser-Ser-Ser-Gly-Leu-Gly-Cys (CFGRKMDRISSSSGLGC; disulfide 1-17; ends not checked) [B ring]
- Post-application symptoms (alopecia) [2]: 7 weeks after application, hair became elastic and formulation exhibited more remarkable hair-
- Changes in subjective symptoms [3]: Remission of itch and pain; also recorded: Relief of pain; also recorded: Itches after bath was remitted
- Post-application symptoms [3]: ameliorating effect on miliaria, cracked or chapped skin; also recorded: Remission of desiccatinn; also recorded: Remission of flare and milaria; also recorded: Cracks gradually became; also recorded: Gradual remission of erythema
- Post-application symptoms (lips, mucosal condition) ([4]; 0.5 μmol): 3 min after application, lips became moisturized.
- Post-application symptoms (lips, mucosal condition) ([4]; 1 μmol): 2 min after application, cracks on mouth corner were remitted and Skin became moisturized soon after application. After 2 min,
- Post-application symptoms (lips, mucosal condition) ([4]; 2 μmol): After 2 min, lips were full and soft, and wrinkles were less; also recorded: After 2 min, lips were full, soft and moisturized, and wrinkles
- Skin-improving effect, summary ([5]; compared to site where BNP gel formulation had been applied, FIG. 1): has a skin moisturizing effect and is capable of improving skin texture
- Post-application symptoms (skin condition) ([5]; concentration not printed (about 1 μM), right face, gel base on the left): 1 min after application, skin tingling sensation
- Post-application symptoms [6]: Flare remitted soon after application. After; also recorded: Flare started to fade soon after application,; also recorded: Flare remitted soon after application,; also recorded: Flare and pigmentation removed 2.5 min after
- Post-application symptoms (scalp/hair) ([7]; 1 μmol, 1 application/day (5 days, 3 weeks or continued), daily for 3 weeks): Hair growth was stimulated, and an increase in hair volume
- Post-application symptoms (scalp/hair) ([7]; 1 μmol, 1 application/day (5 days, 3 weeks or continued), daily for 5 days): A decrease in falling hair was observed, showing an effect
- Post-application symptoms (scalp/hair) ([7]; 1 μmol, 1 application/day (5 days, 3 weeks or continued), daily, continued post partum): growth was stimulated, improving thinning of hair.
- Post-application symptoms (scalp/hair) ([7]; 2 μmol, 1 application): After 2 min, itches were removed, scalp seborrhea and; also recorded: After 1 min. itches were removed. After 2 min, scalp; also recorded: After 2 min, itches were removed, scalp seborrhea was improved

Substance: SEQ ID NO 43 (CFGRKMDRISSSTGLGC; disulfide 1-17)
- Diagnostic impression on skin after application [1, 9]: After 2 minutes, no discomfort, felt
- Itches after application [1, 9]: After 3 minutes,
- Diagnostic impression on skin after application [1, 10]: After 1 minute, redness and infiltration
- Itches after application [1, 10]: Iches were eliminated
- Diagnostic impression on skin after application ([1]; rosacae/acne, formulation C (30 μg/ml in purified water), once a day): After 7 minutes, acne was reduce and
- Diagnostic impression on skin after application ([1]; roughened lips, formulation C (30 μg/ml in purified water), once a day): 1 minute after application, dry skin
- Diagnostic impression on skin after application ([1]; roughened skin, formulation B (15 μg/ml in purified water), once a day): After 3 minutes, redness and dry skin

Substance: Ser-Pro-Lys-Met-Val-Gln-Gly-Ser-Gly-Cys-Phe-Gly-Arg-Lys-Met-Asp-Arg-Ile-Ser-Ser-Ser-Ser-Gly-Le u-Gly-Cys-Lys-Val-Leu-Arg-Arg-His [BNP, reference compound]
- Changes in subjective symptoms [3]: No subjective remission of skin
- Post-application symptoms [3]: No remission of skin desiccation

Substance: SEQ ID NO 70 (CFGRRMDRISSSTGLAC; disulfide 1-17)
- Diagnostic impression on skin after application [1, 8]: immediately after application, erythema
- Diagnostic impression on skin after application [1, 11]: Redness vanished in 30 seconds. After 1

Substance: SEQ ID NO 53 (CFGRRMDRISSSSGLAC; disulfide 1-17)
- Diagnostic impression on skin after application [1, 10]: After 1 minute, erythema and infiltration

Substance: SEQ ID NO 18 (CFGHKMDRISSSSGLGC; disulfide 1-17)
- Diagnostic impression on skin after application [1, 12]: After 2 minutes, redness was remitted.

Substance: SEQ ID NO 61 (CFSRRMDRISSSSGIGC; disulfide 1-17)
- Diagnostic impression on skin after application ([1]; chronic, formulation C (30 μg/ml in purified water), once a day): Immediately after application, erythema

Substance: SEQ ID NO 75 (CFSRRMDRISSSSGIAC; disulfide 1-17)
- Diagnostic impression on skin after application [1, 10]: After 2 minutes, erythema, scalesm

Substance: SEQ ID NO 60 (CFSRRMDRISSSTGLGC; disulfide 1-17)
- Diagnostic impression on skin after application [1, 8]: Immediately after application, erythema

Substance: SEQ ID NO 42 (CFGRKMDRISSASGLGC; disulfide 1-17)
- Diagnostic impression on skin after application ([1]; acne, formulation C (30 μg/ml in purified water), once a day): After 1 minute, redness was remitted.
- Itches after application ([1]; atopic dermatitis, formulation B (15 μg/ml in purified water), once a day): Iches were eliminated
- Diagnostic impression on skin after application [1, 10]: After 3 minutes, erythema and dry skin

Substance: SEQ ID NO 64 (CFSRKMDRISSSTGIGC; disulfide 1-17)
- Diagnostic impression on skin after application [1, 8]: Immediately after application, erythema

Substance: SEQ ID NO 16 (CFVRKMDRISSSSGLGC; disulfide 1-17)
- Diagnostic impression on skin after application [1, 12]: After 3 minutes, erythema was remitted.

Substance: SEQ ID NO 68 (CFGRRMDRISSTSGLAC; disulfide 1-17)
- Diagnostic impression on skin after application [1, 8]: Immediately after application, erythema

Substance: SEQ ID NO 69 (CFGRRMDRISSSTGIGC; disulfide 1-17)
- Diagnostic impression on skin after application [1, 10]: After 2 minutes, erythema, scales,

Substance: SEQ ID NO 63 (CFSRKMDRISSTSGIGC; disulfide 1-17)
- Diagnostic impression on skin after application ([1]; eczema, formulation B (15 μg/ml in purified water), once a day): After 3 minutes, erythema and scales

Substance: SEQ ID NO 26 (CFGRKMDRISSVSGLGC; disulfide 1-17)
- Diagnostic impression on skin after application [1, 12]: After 2 minutes, remitted.

Substance: SEQ ID NO 44 (CFGRKMDRISSSAGLGC; disulfide 1-17)
- Diagnostic impression on skin after application [1, 10]: After 1 minute, erythema and infiltration
- Itches after application [1, 10]: Iches were remitted
- Diagnostic impression on skin after application ([1]; healthy skin, formulation B (15 μg/ml in purified water), once a day): Skin got moisturized promptly, wrinkles

Substance: SEQ ID NO 47 (CFSRKMDRISSSTGLGC; disulfide 1-17)
- Diagnostic impression on skin after application [1, 8]: Immediately after application, erythema

Substance: SEQ ID NO 58 (CFGRKMDRISSSSGIAC; disulfide 1-17)
- Diagnostic impression on skin after application [1, 10]: After 2 minutes, erythema, scales,

Substance: SEQ ID NO 65 (CFSRKMDRISSSTGLAC; disulfide 1-17)
- Diagnostic impression on skin after application [1, 11]: After 1 minute, skin got moisturized and

Substance: SEQ ID NO 39 (CFSRKMDRISSSSGLGC; disulfide 1-17)
- Diagnostic impression on skin after application [1, 12]: After 3 minutes, nodes were flattened.

Substance: SEQ ID NO 74 (CFSRRMDRISSSTGLAC; disulfide 1-17)
- Diagnostic impression on skin after application ([1]; chronic eczema, formulation D (100 μg/ml in purified water), once a day): Iches were eliminated immediately after
- Diagnostic impression on skin after application [1, 11]: After 1 minute, rawness and hot flash

Substance: SEQ ID NO 73 (CFSRRMDRISSSTGIGC; disulfide 1-17)
- Diagnostic impression on skin after application [1, 8]: Immdediately after application, erythema
